Laboratory results as given in patent publication US20100004267A1, “LIQUID PREPARATION” (ASUBIO PHARMA CO., LTD., priority 2006, published 2010).
Read-outs that look alike come from different tables or passages of the source.

How the values were obtained:
[1] = Examination of solubilizing agent: solubility of SUN N8075 (Test example 1); format: physicochemical; conditions: for solubility at 30 min: phosphate-buffered saline with solubilizing agent, 24 °C, kinetic from dmso stock, read-out: Concentration (solubility of SUN N8075)
Procedure: 8 mg/mL aqueous solution of SUN N8075 was prepared. On the other hand, for each solubilizing agent, an aqueous solution having approximately 0.4% of solubilizing agent was prepared.
10 mL of SUN N8075 aqueous solution and 10 mL of solution of each solubilizing agent were mixed to give Mixture A, and Mixture A was filtered through a filter of 0.22 μm.
6.24 g of sodium dihydrogen phosphate and 16.4 g of sodium chloride were weighed and water was added to make the volume precisely 1,000 mL. To this solution, 1 mol/L sodium hydroxide test solution was added dropwise and the pH value was adjusted to 7.4, which was named Mixture B.
Mixture of each 2.5 mL of Mixture A and Mixture B was provided as a test solution (in each test solution, the concentration of SUN N8075 corresponds to 2 mg/mL, and the concentration of solubilizing agent corresponds to 0.1%).
As for a solubilizing agent of which degree of improving solubility of SUN N8075 was high, tests with concentrations of the added solubilizing agent varied were additionally executed in accordance with the method as described above.

aorta of rat = assay: Blood vessel stimulus and precipitation at administration site (Test example 2); format: in vivo
Procedure: Saline, a solution in saline to which 0.1% of Tween80 was added, and a solution in saline to which 0.5, 1.0, 2.0 or 3.0% of β-cyclodextrin sulfobutyl ether sodium salt dissolving various concentrations described in Table 2 below of SUN N8075 were prepared, and administered to aorta of rat, and precipitation of SUN N8075 and presence of stimulus (blood vessel stimulus) on tissues at the site of administration were evaluated.

[2] = Examination of properties of SUN N8075 itself; format: physicochemical; conditions: pH around neutrality
[3] = 0.1% Tween80 in saline, drug conc. 0.23 mg/mL, 72 hour
[4] = 0.1% Tween80 in saline, drug conc. 0.7 mg/mL, 72 hour
[5] = 0.5% Captisol in saline, drug conc. 0.7 mg/mL, 24 hour
[6] = 1.0% Captisol in saline, drug conc. 0.7 mg/mL, 24 hour
[7] = 2.0% Captisol in saline, drug conc. 0.7 mg/mL, 24 hour
[8] = 3.0% Captisol in saline, drug conc. 0.23 mg/mL, 72 hour
[9] = 3.0% Captisol in saline, drug conc. 0.7 mg/mL, 72 hour
[10] = no solubilizing agent in saline, drug conc. 0.23 mg/mL, 72 hour
[11] = no solubilizing agent in saline, drug conc. 0.7 mg/mL, 72 hour
[12] = no solubilizing agent in saline, drug conc. 2.3 mg/mL, 72 hour

Cc1cc(OC[C@@H](O)CN2CCN(c3ccc(Cc4ccc(F)cc4)cc3)CC2)c(C)c(C)c1N [SUN N8075, (2S)-1-(4-amino-2,3,5-trimethylphenoxy)-3-{4-[4-(4-fluorobenzyl)phenyl]-1-piperazinyl}-2-propanol dimethane sulfonate]
Appearance of solution ([1]; Mannitol 0.1%, pH 6.8): colorless and clear
Appearance of solution ([1]; Nicotinic amide 0.1%, pH 6.8): colorless and clear
Appearance of solution ([1]; No additive, pH 6.8): colorless and clear
Appearance of solution ([1]; Propylene glycol 0.1%, pH 6.9): colorless and clear
Appearance of solution ([1]; Tween80 0.1%, pH 6.8): clouded
Appearance of solution ([1]; Tween80 0.2%, pH 6.8): clouded
Appearance of solution ([1]; Tween80 0.5%, pH 6.8): clouded
Appearance of solution ([1]; Tween80 1.0%, pH 6.8): colorless and clear
solubility at 30 min ([1]; pH 6.5, aqueous with cosolvent or surfactant or cyclodextrin, β-Cyclodextrin derivative 10%, pH 6.5): 4850 µg/mL
solubility at 30 min ([1]; pH 6.8, aqueous with cosolvent or surfactant or cyclodextrin, HCO-60 0.5%, pH 6.8): 395 µg/mL
solubility at 30 min ([1]; pH 6.8, aqueous with cosolvent or surfactant or cyclodextrin, HCO-60 (polyoxyethylene hardened castor oil) 0.1%, pH 6.8): 184 µg/mL
solubility at 30 min ([1]; pH 6.8, aqueous with cosolvent or surfactant or cyclodextrin, Human serum albumin 0.1%, pH 6.8): 14 µg/mL
solubility at 30 min ([1]; pH 6.8, aqueous with cosolvent or surfactant or cyclodextrin, Tween80 0.1%, pH 6.8): 745 µg/mL
solubility at 30 min ([1]; pH 6.8, aqueous with cosolvent or surfactant or cyclodextrin, Tween80 0.2%, pH 6.8): 1830 µg/mL
solubility at 30 min ([1]; pH 6.8, aqueous with cosolvent or surfactant or cyclodextrin, Tween80 0.5%, pH 6.8): 1790 µg/mL
solubility at 30 min ([1]; pH 6.8, aqueous with cosolvent or surfactant or cyclodextrin, Tween80 1.0%, pH 6.8): 1820 µg/mL
solubility at 30 min ([1]; pH 6.8, aqueous with cosolvent or surfactant or cyclodextrin, β-Cyclodextrin derivative 0.5%, pH 6.8): 98 µg/mL
solubility at 30 min ([1]; pH 6.8, aqueous with cosolvent or surfactant or cyclodextrin, β-Cyclodextrin derivative 1.0%, pH 6.8): 240 µg/mL
solubility at 30 min ([1]; pH 6.9, aqueous with cosolvent or surfactant or cyclodextrin, HCO-60 0.2%, pH 6.9): 334 µg/mL
solubility at 30 min ([1]; pH 6.9, aqueous with cosolvent or surfactant or cyclodextrin, β-Cyclodextrin 0.1%, pH 6.9): 26 µg/mL
solubility at 30 min ([1]; pH 6.9, aqueous with cosolvent or surfactant or cyclodextrin, β-Cyclodextrin derivative 5.0%, pH 6.9): 1420 µg/mL
Appearance of solution ([1]; β-Cyclodextrin 0.1%, pH 6.9): colorless and clear
Appearance of solution ([1]; β-Cyclodextrin derivative 0.5%, pH 6.8): colorless and clear
Appearance of solution ([1]; β-Cyclodextrin derivative 1.0%, pH 6.8): colorless and clear
Appearance of solution ([1]; β-Cyclodextrin derivative 5.0%, pH 6.9): colorless and clear
Appearance of solution ([1]; β-Cyclodextrin derivative 10%, pH 6.5): colorless and clear
Appearance of solution ([1]; β-Cyclodextrin derivative (β-cyclodextrin sulfobutyl ether sodium salt) 0.1%, pH 6.8): colorless and clear
Blood vessel stimulation (aorta of rat; [3]): Detected
Precipitation at administration site (aorta of rat; [3]): None*^2
Blood vessel stimulation (aorta of rat; [4]): Detected
Precipitation at administration site (aorta of rat; [4]): None*^2
Blood vessel stimulation (aorta of rat; [5]): None
Precipitation at administration site (aorta of rat; [5]): None*^2
Blood vessel stimulation (aorta of rat; [6]): None
Precipitation at administration site (aorta of rat; [6]): None*^2
Blood vessel stimulation (aorta of rat; [7]): None
Precipitation at administration site (aorta of rat; [7]): None*^2
Blood vessel stimulation (aorta of rat; [8]): None
Precipitation at administration site (aorta of rat; [8]): None*^2
Blood vessel stimulation (aorta of rat; [9]): None
Precipitation at administration site (aorta of rat; [9]): None*^2
Blood vessel stimulation (aorta of rat; [10]): Detected
Precipitation at administration site (aorta of rat; [10]): Detected*^1
Blood vessel stimulation (aorta of rat; [11]): Detected
Precipitation at administration site (aorta of rat; [11]): Detected*^1
Blood vessel stimulation (aorta of rat; [12]): Detected
Precipitation at administration site (aorta of rat; [12]): Detected*^1
Solubility [2]: very low
